Data set [1] has as its system MDA-MB-231 human breast carcinoma cell line. Nature of the data set: Growth inhibition studies on MDA-MB-231. The class given is cell-based. The source says:
Growth inhibition studies on MDA-MB-231 human breast carcinoma cell line in the presence of gemcitabine (F2CDP-red) or cis-platin (CDDP-blue) alone (solid lines), or in combination with a non-toxic does of compound 2 (dashed lines).
Growth of the MDA-MB-231 cancer cell line is inhibited by compound 3.

The target in the next data set is T1, RR (Homo sapiens, UniProt P23921).
T1 sequence (P23921 1-792): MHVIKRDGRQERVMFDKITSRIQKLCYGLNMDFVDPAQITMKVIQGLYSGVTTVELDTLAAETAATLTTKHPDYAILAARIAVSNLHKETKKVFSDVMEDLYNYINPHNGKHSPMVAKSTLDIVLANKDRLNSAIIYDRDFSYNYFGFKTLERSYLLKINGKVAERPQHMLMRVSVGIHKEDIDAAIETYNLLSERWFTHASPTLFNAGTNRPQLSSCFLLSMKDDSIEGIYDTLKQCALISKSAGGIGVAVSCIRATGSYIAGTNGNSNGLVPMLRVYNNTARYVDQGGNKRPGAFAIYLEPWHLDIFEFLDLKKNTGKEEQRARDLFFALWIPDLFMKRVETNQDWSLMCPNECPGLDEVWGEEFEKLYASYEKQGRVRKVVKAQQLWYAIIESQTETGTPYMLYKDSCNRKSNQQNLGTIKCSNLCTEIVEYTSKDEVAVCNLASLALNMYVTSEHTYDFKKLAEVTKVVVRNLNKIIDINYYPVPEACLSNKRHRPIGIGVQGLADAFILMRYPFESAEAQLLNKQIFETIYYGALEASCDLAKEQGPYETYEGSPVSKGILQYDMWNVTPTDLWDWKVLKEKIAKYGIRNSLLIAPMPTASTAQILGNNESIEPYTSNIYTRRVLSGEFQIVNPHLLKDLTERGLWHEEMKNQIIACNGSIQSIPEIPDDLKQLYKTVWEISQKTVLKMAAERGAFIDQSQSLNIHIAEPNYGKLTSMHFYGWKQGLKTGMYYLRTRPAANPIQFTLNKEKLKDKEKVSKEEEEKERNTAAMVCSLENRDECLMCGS
Nature of the data set: RR inhibition by ligands with anticancer properties (Table 4).

The test system of data set [2] is ribonucleotide reductase activity. The data set is described as follows: DNA synthesis assay.
In data set [3] the test system is A549 non-small cell lung cells; 231 triple negative breast cells; LN229. The data set is described as follows: MTT Assay I. The class given is cell-based. The conditions noted are these: continuous doses for three days; for IC50: 72 h, range over A549, 231, LN229; for ACTIVITY: A549, 231, LN229. Here is the method: We conducted an MTT assay to measure cell metabolism as a surrogate for cell number using A549, Non-Small Cell Lung cells; 231, Triple negative breast cells; and LN229. All values are relative to untreated controls, corrected for any MTT absorbance due to media alone.
The cells were treated with continuous doses of the indicated drugs for three days, at which time the MTT assay was run. The control is listed as a dose of 0.1 uM because we plot on a log scale and wish to avoid taking the log of 0 in the calculations.

For data set [4], the system named is A549 non-small cell lung cells; pancreatic cells (Panc-1); colon cells (HCT-116). Nature of the data set: MTT Assay II. In kind it is cell-based. An excerpt: We conducted an MTT assay to measure cell metabolism as a surrogate for cell number using A549, Non-Small Cell Lung cells; pancreatic cells (Panc-1); and colon cells (HCT-116).
The mark [5] stands for this setting: A549, Panc-1, HCT-116, read-out: IC50.

Where two headings read alike, the source gives them in different places.

Turning to `O=C(CC1CCCCC1)N/N=C\c1cccc2cccc(O)c12` [Compound 3], in data set [1] (single agent), the “cytotoxicity / growth inhibition” value is given as “cytotoxic against human breast carcinoma cells”. This compound also gave an IC50 against RR of 225 nM.
The compound `Cc1c2c(c(O)c3c(O)ccc(Cl)c13)C(=O)C1(O)C(=O)C(C(=O)O)=C(O)C(N(C)C)C1C2` (stereo not shown) [Drug 4] displayed an IC50 in data set [2] of 50000 to 100000 nM.
With `OC(COc1ccc2c(c1)CCC2)CN1CCN(Cc2ccccc2)CC1` (stereo not shown) [Compound 4], the IC50 on RR was in the range of 5000 to 10000 nM.
Consider `O=C(CCCCCCCCC(=O)N/N=C/c1c(O)ccc2ccccc12)N/N=C/c1c(O)ccc2ccccc12` [Drug 1], for which the IC50 in data set [3] is 800 to 2000 nM; in data set [2], no more than 1000 nM. In addition, the ACTIVITY entry is given as “Steady effect on all three cell lines” in data set [3] and “most potent” in data set [2] (DNA synthesis assay, exposed for 2 continuous days).
For `O=C(CCCCCCCCC(=O)N/N=C/c1c(O)ccc2ccccc12)N/N=C/c1c(O)ccc2ccccc12` [Compound 1], the IC50 (in data set [4] (setting [5]); at RR) was 600 to 2000 nM each time.
Consider `OC(COc1ccc(OCC(O)CN2CCN(C3c4ccccc4-c4ccccc43)CC2)cc1)CN1CCN(C2c3ccccc3-c3ccccc32)CC1` (stereo not shown) [Compound 2], for which the IC50 in data set [4] (setting [5]) lay in the range of 3000 to 8000 nM. For the same compound, the “effect on cytotoxicity of gemcitabine or cis-platin” value in data set [1] (combination with a non-toxic dose of compound 2) is listed as “increases cytotoxicity of gemcitabine of cis-platin”.
Compound `CCCCCCCCCCCCC(=O)NCC(=O)NC(CCCCN)C(=O)OC` (stereo not shown) [Compound 5] came in with an IC50 at RR of 5000 to 10000 nM.
As to `OC(COc1ccc(OCC(O)CN2CCN(C3c4ccccc4-c4ccccc43)CC2)cc1)CN1CCN(C2c3ccccc3-c3ccccc32)CC1` (stereo not shown) [Drug 2], in data set [3], the IC50 is 3000 to 12000 nM and the ACTIVITY entry is on record as “Shows an extremely dramatic effect”.
For `Nc1ccn([C@@H]2O[C@H](CO)[C@@H](O)C2(F)F)c(=O)n1` [Gemcitabien, reference compound], the IC50 in data set [4] (A549, Panc-1, HCT-116, read-out: IC50s) fell in the range of 100 to 500 nM.

Source of the values: patent publication US9889129B2, “Method of modulating ribonucleotide reductase” (Case Western Reserve University, priority 2012, dated 2018).
